In the Kinase Knowledgebase extract (Sharma et al. 2016):
Several values for one entry are separate records, joined by “and”; a condition that tells them apart may be missing. Identical values can stand only once.

Assays:
EGFR [1] = target: EGFR (UniProt P00533); settings: various cell lines
EGFR [2] = target: EGFR (UniProt P00533)

Chain of EGFR (P00533 whole entry, looked up): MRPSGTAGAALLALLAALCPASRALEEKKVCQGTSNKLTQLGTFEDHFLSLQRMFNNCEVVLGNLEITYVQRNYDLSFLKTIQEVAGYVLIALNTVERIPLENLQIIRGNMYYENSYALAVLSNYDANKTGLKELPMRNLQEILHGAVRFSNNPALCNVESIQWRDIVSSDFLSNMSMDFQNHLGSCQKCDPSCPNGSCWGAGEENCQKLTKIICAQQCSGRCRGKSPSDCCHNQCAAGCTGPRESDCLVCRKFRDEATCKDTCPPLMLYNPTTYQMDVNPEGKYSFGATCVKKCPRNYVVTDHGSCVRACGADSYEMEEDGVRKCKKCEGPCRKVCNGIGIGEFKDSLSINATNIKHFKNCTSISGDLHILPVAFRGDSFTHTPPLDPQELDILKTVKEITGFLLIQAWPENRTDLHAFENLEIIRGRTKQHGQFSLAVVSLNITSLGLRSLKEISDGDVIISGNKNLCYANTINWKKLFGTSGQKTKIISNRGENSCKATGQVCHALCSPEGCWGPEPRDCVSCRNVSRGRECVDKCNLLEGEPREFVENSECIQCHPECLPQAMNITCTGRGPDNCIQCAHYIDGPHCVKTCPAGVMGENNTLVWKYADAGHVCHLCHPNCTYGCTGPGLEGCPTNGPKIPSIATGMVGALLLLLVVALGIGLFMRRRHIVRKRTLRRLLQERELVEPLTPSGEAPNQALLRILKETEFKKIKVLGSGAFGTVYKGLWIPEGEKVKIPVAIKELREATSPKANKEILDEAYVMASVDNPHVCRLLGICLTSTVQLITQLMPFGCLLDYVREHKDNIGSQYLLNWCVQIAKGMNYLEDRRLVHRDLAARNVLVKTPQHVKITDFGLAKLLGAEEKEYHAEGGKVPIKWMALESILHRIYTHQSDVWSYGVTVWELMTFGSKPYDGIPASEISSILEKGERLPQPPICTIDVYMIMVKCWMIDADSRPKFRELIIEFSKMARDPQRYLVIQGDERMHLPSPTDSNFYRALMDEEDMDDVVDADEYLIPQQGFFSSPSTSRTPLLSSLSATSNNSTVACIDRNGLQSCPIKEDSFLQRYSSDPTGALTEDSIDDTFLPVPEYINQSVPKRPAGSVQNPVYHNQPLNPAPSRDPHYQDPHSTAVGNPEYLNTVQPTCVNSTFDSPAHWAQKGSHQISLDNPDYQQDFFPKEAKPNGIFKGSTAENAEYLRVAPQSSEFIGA

IC50 (EGFR [1]) | IC50 (EGFR [2]) | SMILES
– | 0.22 µM | Nc1nc(N)c2c(Nc3cccc(Cl)c3)n[nH]c2n1
– | 0.002 µM | Nc1ccc(-c2n[nH]c3ncnc(Nc4cccc(Cl)c4)c23)cc1
0.048 µM | – | CN(C)CCNc1cc2c(Nc3cccc(Br)c3)ncnc2cn1
– | 0.023 µM | C=CC(=O)Nc1ccc2sc3c(Nc4cccc(Br)c4)ncnc3c2c1
– | 0.02 µM and 0.023 µM | Brc1cccc(Nc2ncnc3ccccc23)c1
0.02 µM | 0.00044 µM | Brc1cccc(Nc2ncnc3cc4[nH]ccc4cc23)c1
– | 0.008 µM | COc1cccc(CNc2n[nH]c3ncnc(Nc4cccc(Cl)c4)c23)c1
0.024 µM | 0.0014 µM | C=CC(=O)Nc1cccc2c1sc1c(Nc3cccc(Br)c3)ncnc12
– | 0.00034 µM | Brc1cccc(Nc2ncnc3cc4cn[nH]c4cc23)c1
– | 0.04 µM and 0.027 µM | Clc1cccc(Nc2ncnc3ccccc23)c1
– | 0.006 µM | COc1cc2ncnc(Nc3cncc4ccccc34)c2cc1OC
0.0081 µM | 0.0019 µM | CN(C)CCCCNc1cc2ncnc(Nc3cccc(Br)c3)c2cn1
– | 0.021 µM | C=CC(=O)Nc1ccc2c(c1)sc1c(Nc3cccc(Br)c3)ncnc12
– | 9.1e-05 µM | CNc1cc2ncnc(Nc3cccc(Br)c3)c2cn1
0.0097 µM | – | CN(C)Cc1c[nH]c2cc3ncnc(Nc4cccc(Br)c4)c3cc12
– | 0.01 µM | COc1cc2ncnc(NC3CC3c3ccccc3)c2cc1OC (centres undefined)
– | 0.033 µM | Clc1cccc(Nc2ncnc3[nH]nc(Nc4cccc(Cl)c4)c23)c1
0.03 µM | – | CNc1ncc2ncnc(Nc3cccc(Br)c3)c2n1
0.013 µM | – | CNc1cc2c(Nc3cccc(Br)c3)ncnc2cn1
– | 0.00044 µM | Brc1cccc(Nc2ncnc3cc4[nH]ncc4cc23)c1
– | 0.006 µM | Clc1cccc(Nc2ncnc3[nH]c4ccccc4c23)c1

Further lines, the molecule ahead of its results:

SMILES | IC50 (EGFR [1]) | IC50 (EGFR [2])
Brc1cccc(Nc2ncnc3cnc(NCCc4c[nH]cn4)nc23)c1 | 0.0051 µM | –
COC(=O)Cc1c(SSc2[nH]c3ccccc3c2CC(=O)OC)[nH]c2ccccc12 | – | 18 µM
COc1cc2ncnc(Oc3cccc(Br)c3)c2cc1OC | 0.07 µM | –
COc1cc2c(NC3CC3c3ccccc3)ncnc2cc1OCCCN(C)C (centres undefined) | – | 0.003 µM
CNC(=O)c1c([Se][Se]c2c(C(=O)NC)c3ccccc3n2C)n(C)c2ccccc12 | – | 6.1 µM
Cc1cccc(N(C)c2ncnc3[nH]ncc23)c1 | – | > 50 µM
CC(=O)Oc1cccc2c1c(C(=O)Nc1ccccc1)c(SSc1c(C(=O)Nc3ccccc3)c3c(OC(C)=O)cccc3n1C)n2C | – | 10 µM
COc1cc2ncnc(N(C)c3cccc(C)c3)c2cc1OC | – | 12 µM
O=C1NC(=O)c2cc(NC3CCCCC3)c(NC3CCCCC3)cc21 | – | > 1000 µM
O=CN/C=C/c1cc(O)ccc1O | – | 0.367 µM
COc1cc2ncnc(N[C@@H](C)c3cccc(Br)c3)c2cc1OC | – | 3.76 µM
Cn1c(SSc2c(C(=O)Nc3ccccc3)c3ccccc3n2C)c(C(=O)Nc2ccccc2)c2ccccc21 | – | 20 µM
COc1cc2ncnc(Nc3ccc(F)c(Br)c3)c2cc1OCCCN1CCOCC1 | – | 0.02 µM
Brc1cccc(Nc2ncnc3cc(NCCCN4CCOCC4)ncc23)c1 | 0.038 µM | 0.0074 µM
Brc1cccc(Nc2ncnc3cc4[nH]cc(CN5CCOCC5)c4cc23)c1 | 0.0096 µM | –
COc1cc2ncnc(N[C@H](C)c3cccc(Br)c3)c2cc1OC | – | 0.0016 µM
COc1cc2nccc(Oc3cccc(Br)c3)c2cc1OC | 2.5 µM | –
C/C(O)=C(/C#N)C(=O)Nc1ccc(C(F)(F)F)cc1 | 35 µM | –
Brc1cccc(Nc2ncnc3cnc(NCCN4CCOCC4)cc23)c1 | 0.0079 µM | –
Cc1cccc2c(CCC(=O)O)c(SSc3[nH]c4c(C)cccc4c3CCC(=O)O)[nH]c12 | – | 1.5 µM
COc1cc2cc(-c3ccccc3)c(Cl)nc2cc1OC | > 0.03 µM | –
Brc1cccc(Nc2ncnc3cc4c(ccn4CCN4CCOCC4)cc23)c1 | 0.016 µM | –
COc1cc2ncnc(NCc3cccc(Br)c3)c2cc1OC | – | 0.01 µM
CCN(CC)CC(O)CNc1cc2c(Nc3cccc(Br)c3)ncnc2cn1 (centres undefined) | 0.028 µM | –
